test system: hepatocellular carcinoma cell line Hub-7; assay: Cell proliferation assay (CELL-TITER GLO cell viability); assay type: cell-based; conditions: 24 h, Hub-7 cells, 24 h incubation, read-out: Inhibition of Cell Proliferation EC50
Outline: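 […] cells (4,000/well) seeded overnight, then exposed 24 h to compound from 10 μM in 3-fold serial dilutions. Viability read by CELL-TITER GLO luminescence; EC50 values derived.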

| SMILES | EC50 |
| --- | --- |
| C#CC(=O)N(c1ccc2c(cnn2C)c1)C1(C(=O)NCc2ccccc2)CCC(=O)CC1 [A164, N-Benzyl-1-(N-(1-methyl-1H-indazol-5-yl)propiolamido)-4-oxocyclohexane-1-carboxamide] | ≤ 100 nM |
| C#CC(=O)N(c1ccc2c(cnn2C)c1)C1(C(=O)NCc2ccccc2)CCCC(=O)C1 (stereo not shown) [A165, N-Benzyl-1-(N-(1-methyl-1H-indazol-5-yl)propiolamido)-3-oxocyclohexane-1-carboxamide] | 100 to 500 nM |
| C#CC(=O)N(CCc1ccccc1)C1(C(=O)NCc2ccccc2)CCCC(C(=O)OC)C1 (stereo not shown) [A166, Methyl 3-(benzylcarbamoyl)-3-(N-phenethylpropiolamido)cyclohexane-1-carboxylate] | 100 to 500 nM |
| C#CC(=O)N(Cc1cccc(O)c1)C1(C(=O)NCc2ccccc2)CCCC(C(=O)OC)C1 (stereo not shown) [A167, Methyl 3-(benzylcarbamoyl)-3-(N-(3-hydroxybenzyl)propiolamido)cyclohexane-1-carboxylate] | 100 to 500 nM |
| C#CC(=O)N(C1CCC1)C1(C(=O)NCc2ccccc2)CCCC(C(=O)OC)C1 (stereo not shown) [A168, Methyl 3-(benzylcarbamoyl)-3-(N-cyclobutylpropiolamido)cyclohexane-1-carboxylate] | 500 to 2000 nM |
| C#CC(=O)N(CCc1ccccc1)C1(C(=O)NCc2ccccc2)CCCC(C(=O)O)C1 (stereo not shown) [A169, 3-(Benzylcarbamoyl)-3-(N-phenethylpropiolamido)cyclohexane-1-carboxylic acid] | > 10000 nM |
| C#CC(=O)N(Cc1cccc(O)c1)C1(C(=O)NCc2ccccc2)CCCC(C(=O)O)C1 (stereo not shown) [A170, 3-(Benzylcarbamoyl)-3-(N-(3-hydroxybenzyl)propiolamido)cyclohexane-1-carboxylic acid] | > 10000 nM |
| C#CC(=O)N(c1cccc(Cl)c1)C1(C(=O)NCc2ccccc2)CCCC(O)C1 (stereo not shown) [A171, N-Benzyl-1-(N-(3-chlorophenyl)propiolamido)-3-hydroxycyclohexane-carboxamide] | 2000 to 10000 nM |
| C#CC(=O)N(c1cccc(Cl)c1)C1(C(=O)NCc2ccccc2)CCCC(=O)C1 (stereo not shown) [A172, N-Benzyl-1-(N-(3-chlorophenyl)propiolamido)-3-oxocyclohexanecarboxamide] | ≤ 100 nM |
| C#CC(=O)N(c1cccc(Cl)c1)C1(C(=O)NCc2ccccc2)CCCC(C(=O)OC)C1 (stereo not shown) [A173, Methyl 3-(benzylcarbamoyl)-3-(N-(3-chlorophenyl)propiolamido)cyclohexane-carboxylate] | ≤ 100 nM |
| C#CC(=O)N(c1cccc(Cl)c1)C1(C(=O)NCc2ccccc2)CCCOC1 (stereo not shown) [A174, N-Benzyl-3-(N-(3-chlorophenyl)propiolamido)tetrahydro-2H-pyran-3-carboxamide] | ≤ 100 nM |
| C#CC(=O)N(c1cccc(Cl)c1)C1(C(=O)NCc2ccccc2)CCC(=O)CC1 [A175, N-Benzyl-1-(N-(3-chlorophenyl)propiolamido)-4-oxocyclohexane-1-carboxamide] | ≤ 100 nM |
| C#CC(=O)N(c1ccc2c(cnn2C)c1)C1(C(=O)NCc2ccccc2)CCCOC1 (stereo not shown) [A176, N-Benzyl-3-(N-(1-methyl-1H-indazol-5-yl)propiolamido)tetrahydro-2H-pyran-3-carboxamide] | ≤ 100 nM |
| C#CC(=O)N(c1ccc2c(cnn2C)c1)C1(C(=O)NCc2ccccc2)CCCC(C(=O)OC)C1 (stereo not shown) [A177, Methyl 3-(benzylcarbamoyl)-3-(N-(1-methyl-1H-indazol-5-yl)propiolamido)-cyclohexane-1-carboxylate] | ≤ 100 nM |
| C#CC(=O)N(c1cccc(Cl)c1)C(C(=O)NCc1ccccc1C#N)c1ccccc1 (stereo not shown) [A178, N-(3-Chlorophenyl)-N-(2-((2-cyanobenzyl)amino)-2-oxo-1-phenylethyl)-propiolamide] | ≤ 100 nM |
| C#CC(=O)N(c1cccc(Cl)c1)C(C(=O)NCC1CCOCC1)c1ccccc1 (stereo not shown) [A180, N-(3-Chlorophenyl)-N-(2-oxo-1-phenyl-2-(((tetrahydro-2H-pyran-4-yl)methyl)-amino)ethyl)propiolamide] | ≤ 100 nM |
| C#CC(=O)N(c1cccc(Cl)c1)C(C(=O)NCC1COC1)c1ccccc1 (stereo not shown) [A181, N-(3-Chlorophenyl)-N-(2-((oxetan-3-ylmethyl)amino)-2-oxo-1-phenylethyl)-propiolamide] | ≤ 100 nM |
| C#CC(=O)N(c1cccc(Cl)c1)C1(C(=O)NCc2cccc(Cl)c2)CCOCC1 [A182, N-(3-Chlorobenzyl)-4-(N-(3-chlorophenyl)propiolamido)tetrahydro-2H-pyran-4-carboxamide] | ≤ 100 nM |
| C#CC(=O)N(c1cccc(Cl)c1)C1(C(=O)NCC(=O)N2CCCC(O)C2)CCOCC1 (stereo not shown) [A183, 4-(N-(3-Chlorophenyl)propiolamido)-N-(2-(3-hydroxypiperidin-1-yl)-2-oxoethyl)tetrahydro-2H-pyran-4-carboxamide] | 2000 to 10000 nM |
| C#CC(=O)N(c1cccc(Cl)c1)C1(C(=O)NCC(=O)N2CCCC(C(=O)OC)C2)CCOCC1 (stereo not shown) [A184, Methyl 1-(2-(4-(N-(3-chlorophenyl)propiolamido)tetrahydro-2H-pyran-4-carboxamido)acetyl)piperidine-3-carboxylate] | 100 to 500 nM |

| SMILES | EC50 |
| --- | --- |
| C#CC(=O)N(c1cccc(Cl)c1)C1(C(=O)NCC(=O)NCc2ccccc2O)CCOCC1 [A185, 4-(N-(3-Chlorophenyl)propiolamido)-N-(2-((2-hydroxybenzyl)amino)-2-oxoethyl)tetrahydro-2H-pyran-4-carboxamide] | 100 to 500 nM |
| C#CC(=O)N(c1cccc(Cl)c1)C1(C(=O)NCC(=O)NCCO)CCOCC1 [A186, 4-(N-(3-Chlorophenyl)propiolamido)-N-(2-((2-hydroxyethyl)amino)-2-oxoethyl)-tetrahydro-2H-pyran-4-carboxamide] | 2000 to 10000 nM |
| C#CC(=O)N(c1cccc(Cl)c1)C1(C(=O)NCC(=O)NCc2ccccc2Cl)CCOCC1 [A187, N-(2-((2-Chlorobenzyl)amino)-2-oxoethyl)-4-(N-(3-chlorophenyl)propiolamido)-tetrahydro-2H-pyran-4-carboxamide] | 100 to 500 nM |
| C#CC(=O)N(c1cccc(Cl)c1)C1(C(=O)NCC(=O)NCc2ccccc2)CCOCC1 [A188, N-(2-(Benzylamino)-2-oxoethyl)-4-(N-(3-chlorophenyl)propiolamido)tetrahydro-2H-pyran-4-carboxamide] | 100 to 500 nM |
| C#CC(=O)N(c1cccc(Cl)c1)C1(C(=O)NCC(=O)NCc2ccccc2C#N)CCOCC1 [A189, 4-(N-(3-Chlorophenyl)propiolamido)-N-(2-((2-cyanobenzyl)amino)-2-oxoethyl)-tetrahydro-2H-pyran-4-carboxamide] | 100 to 500 nM |
| C#CC(=O)N(c1ccc(OC)cc1OC)C(C(=O)NCC(=O)OCC)c1cccs1 (stereo not shown) [A190, Ethyl 2-(2-(N-(2,4-dimethoxyphenyl)propiolamido)-2-(thiophen-2-yl)acetamido)-acetate] | 500 to 2000 nM |
| C#CC(=O)N(c1cccc(Cl)c1)C1(C(=O)NCC(=O)OCC)CCOCC1 [A191, Ethyl 2-(4-(N-(3-chlorophenyl)propiolamido)tetrahydro-2H-pyran-4-carboxamido)acetate] | 500 to 2000 nM |
| C#CC(=O)N(c1cccc(Cl)c1)C1(C(=O)NCC(=O)O)CCOCC1 [A192, 2-(4-(N-(3-Chlorophenyl)propiolamido)tetrahydro-2H-pyran-4-carboxamido)-acetic acid] | > 10000 nM |
| C#CC(=O)N(c1cccc(Cl)c1)C1(C(=O)NCC(=O)Nc2ccccc2)CCOCC1 [A193, 4-(N-(3-Chlorophenyl)propiolamido)-N-(2-oxo-2-(phenylamino)ethyl)tetrahydro-2H-pyran-4-carboxamide] | 100 to 500 nM |
| C#CC(=O)N(c1cccc(Cl)c1)C1(C(=O)NCC(=O)N2CCCC(CO)C2)CCOCC1 (stereo not shown) [A194, 4-(N-(3-Chlorophenyl)propiolamido)-N-(2-(3-(hydroxymethyl)piperidin-1-yl)-2-oxoethyl)tetrahydro-2H-pyran-4-carboxamide] | 2000 to 10000 nM |
| C[Si](C)(C)C#CC(=O)N(c1cccc(Cl)c1)C1(C(=O)NCc2cccc(Cl)c2)CCOCC1 [A195, N-(3-Chlorobenzyl)-4-(N-(3-chlorophenyl)-3-(trimethylsilyl)propiolamido)-tetrahydro-2H-pyran-4-carboxamide] | ≤ 100 nM |
| C=CC(=O)N(c1ccc(OC)c(Cl)c1)C(C(=O)NCc1ccccc1)c1cccc(N)c1 (stereo not shown) [B2, N-(2-(benzylamino)-1-(3-aminophenyl)-2-oxoethyl)-N-(3-chloro-4-methoxyphenyl)acrylamide] | > 10000 nM |
| C=C(F)C(=O)N(c1cccc(Cl)c1)C(C(=O)NCc1ccccc1)c1ccc(N)cc1 (stereo not shown) [B3, N-(1-(4-Aminophenyl)-2-(benzylamino)-2-oxoethyl)-N-(3-chlorophenyl)-2-fluoroacrylamide] | > 10000 nM |
| C=C(F)C(=O)N(c1ccc(OC)c(Cl)c1)C(C(=O)NCc1ccccc1)c1cccc(N)c1 (stereo not shown) [B4, N-(1-(3-Aminophenyl)-2-(benzylamino)-2-oxoethyl)-N-(3-chloro-4-methoxy-phenyl)-2-fluoroacrylamide] | > 10000 nM |
| C=CC(=O)N(c1cccc(Cl)c1)C1(C(=O)NCc2ccccc2)CCOCC1 [B5, N-Benzyl-4-(N-(3-chlorophenyl)acrylamido)tetrahydro-2H-pyran-4-carboxamide] | > 10000 nM |
| C=CC(=O)N(CCc1ccccc1)C1(C(=O)NCc2ccccc2)CCOCC1 [B6, N-Benzyl-4-(N-phenethylacrylamido)tetrahydro-2H-pyran-4-carboxamide] | > 10000 nM |
| C=CC(=O)N(Cc1cccc(O)c1)C1(C(=O)NCc2ccccc2)CCOCC1 [B7, N-Benzyl-4-(N-(3-hydroxybenzyl)acrylamido)tetrahydro-2H-pyran-4-carboxamide] | > 10000 nM |
| C=CC(=O)N(C1CCC1)C1(C(=O)NCc2ccccc2)CCOCC1 [B8, N-Benzyl-4-(N-cyclobutylacrylamido)tetrahydro-2H-pyran-4-carboxamide] | > 10000 nM |
| C=C(F)C(=O)N(c1ccc2c(cnn2C)c1)C1(C(=O)NCc2ccccc2)CCOCC1 [B9, N-Benzyl-4-(2-fluoro-N-(1-methyl-1H-indazol-5-yl)acrylamido)tetrahydro-2H-pyran-4-carboxamide] | > 10000 nM |
| CN(C)C/C=C/C(=O)N(c1ccc2c(cnn2C)c1)C1(C(=O)NCc2ccccc2)CCOCC1 [B10, (E)-N-Benzyl-4-(4-(dimethylamino)-N-(1-methyl-1H-indazol-5-yl)but-2-enamido)tetrahydro-2H-pyran-4-carboxamide] | > 10000 nM |

— patent publication US12516016B2, “GPX4 inhibitors, pharmaceutical compositions thereof, and their use for treating GPX4-mediated diseases” (EUBULUS BIOTHERAPEUTICS (HONG KONG) LIMITED, priority 2020, dated 2026)
